# Tests used:
# [1] = tested on: Mpro Q192T, Q192S, Q192L, Q192A, Q192I, Q192P, Q192H, Q192V, Q192W, Q192C, and Q192F; type: biochemical, SARS-CoV-2
# [2] = tested on: rNsp5^S144A recombinant SARS-CoV-2; type: cell-based
# [3] = tested on: rNsp5^E166Q recombinant SARS-CoV-2; type: cell-based
# [4] = tested on: rNsp5^H172Q recombinant SARS-CoV-2; type: cell-based
# [5] = tested on: rNsp5^H172Y recombinant SARS-CoV-2; type: cell-based
# [6] = tested on: rNsp5^S144M recombinant SARS-CoV-2; type: cell-based
# [7] = tested on: Mpro M49I, M49T, M49L, and M49V; type: biochemical, SARS-CoV-2
# [8] = tested on: top nine high-frequency mutants at residue N142; type: biochemical, SARS-CoV-2
# eight Q189 mutants = type: biochemical, SARS-CoV-2
# Mpro S144A = details: cited from earlier work
# Mpro H172Y = details: cited from earlier work
# [9] = target: Mpro G15S, T21I, L89F, K90R, P108S, P132H, and L205V; details: cited from earlier work
smiles,measurement,setting,value
CC(C)C[C@H](NC(=O)OCc1ccccc1)C(=O)N[C@@H](CC1CCNC1=O)C(O)S(=O)(=O)[O-].[Na+] (stereo partly shown) [GC-376],Cross-resistance (fold vs WT),[1],> 7.7 fold
CC(C)(C)[C@H](NC(=O)C(F)(F)F)C(=O)N1C[C@H]2[C@@H]([C@H]1C(=O)N[C@H](C#N)C[C@@H]1CCNC1=O)C2(C)C [nirmatrelvir],EC50,[2],127 nM
same,EC50 fold increase compared to rNsp5^WT,[2],5.0 fold
same,EC50,[3],69.7 nM
same,EC50 fold increase compared to rNsp5^WT,[3],2.7 fold
same,EC50,[4],133 ± 2.86 nM
same,EC50 fold increase compared to rNsp5^WT,[4],5.2 fold
same,EC50,[5],378 ± 10.2 nM
same,EC50,[6],87.1 ± 3.06 nM
same,EC50 fold increase compared to rNsp5^WT,[6],3.4 fold
same,change in IC50 vs WT,[7],< 3 fold
same,change in IC50 vs WT,[8],< 3.5 fold
same,change in IC50 vs WT,eight Q189 mutants,< 3.1 fold
same,Ki increase,Mpro S144A,91.9 fold
same,increase in Ki,Mpro H172Y,233 fold
same,IC50 or Ki value shifts,[9],< 2 fold

# — article PMC10451032 (ACS Central Science, 2023)
